Results on 35 compounds are retold here after a melting point compilation (Tetko et al.; mined from patent text by program, amines drawn as free bases though some values may be those of a salt).

Broadly, the melting point is the temperature, or range, at which the solid turns liquid. Compound `COc1cccc(CS(=O)c2nc3cnccc3[nH]2)c1` (stereo not given) gave a melting point of 176 to 179 °C.

`O=C1CCCC(=NNc2ccccc2)C1`: the melting point lay in the range of 187 to 189 °C. The same measure for `NC1CCN(c2ncc3ncnc(Nc4ccc(F)c(Cl)c4)c3n2)C1` (stereo not given): 174 to 176 °C; for `Cc1cnc2c(c1)CCCC2O` (stereo not given): 58 °C; for `Cc1ccc(S(=O)(=O)Nc2ccc3cccc(N4CCN(C)CC4)c3c2)cc1`: 180 °C. As for `CC(=O)C(C)(C)Nc1nc(N)nc(O)c1[N+](=O)[O-]`, the melting point was 289 °C. `COc1cc2c(cc1Nc1ncc(Cl)c(Nc3ccc(N4CCOCC4)cc3)n1)CCN(CC(=O)N(C)C)CC2` displayed a melting point of 227 to 242 °C. The same measure for `COC(=O)[C@@H](NC(=O)Nc1n[nH]c(=S)s1)c1ccccc1`: 137 to 139 °C; for `CC(C)NC1=NS(=O)(=O)c2c(Cl)cc(Cl)cc2N1`: 291 to 293 °C. The same measure for `O=C(Nc1cccc(C(F)(F)F)c1)Nc1nccnc1C(=O)O`: greater than 300 °C; for `CC1=C(C)C2=NC(C)(C(C)C)C(=O)N2C1=O` (stereo not given): 98 to 99 °C.

On to `COCC(C)Oc1cc(Oc2ccc(S(C)(=O)=O)nc2)cc2cc(C3=NCC(CCO)S3)[nH]c12` (stereo not given), for which the melting point lay in the range of 138 to 139 °C.

For `CCOC(=O)c1ncc2[nH]c3ccc(Oc4ccc(Br)cn4)cc3c2c1COC`, the melting point was 210 to 212 °C. In turn, `COc1ccc(CCc2oc3ccc(C#N)cc3c2C(=O)O)cc1` had a melting point of 205 to 208 °C. Compound `CC(C)Cn1cc(F)c(-n2cncn2)nc1=O` had a melting point of 150 to 153 °C.

Consider `CCCCCCCCCCC(=O)OCCCCCC(=O)CC(=O)c1ccccc1`, for which the melting point was 37 to 38 °C. The same measure for `CON(C)C(=O)Nc1ccc(Oc2ccc3ccccc3c2)c(C(F)(F)F)c1`: 129 to 130 °C; for `CCCOc1cccc(C2(c3cc(C(=O)CC)n(CC)c3)N=C(N)N(C)C2=O)c1` (stereo not given): 95 °C; for `C#CC1(Oc2ccc(F)cc2N)CCN(C(=O)Oc2ccccc2)CC1`: 125 to 127 °C. For `CCOC(=O)/C=C/c1ccc(OCCCS(C)(=O)=O)cc1Oc1ncc(C(F)(F)F)cc1Cl`, the melting point was 191 °C.

The compound `CC(=O)OCc1ccc(N(c2ccccc2)c2ccc(C=CC=O)cc2)cc1` yielded a melting point of 112 to 115 °C.

The compound `CC(CCCCCCNC(=O)c1ccc(OC(F)(F)F)cc1)NC(=O)c1ccc(OC(F)(F)F)cc1` (stereo not given) returned a melting point of 137 to 138 °C. The same measure for `Nc1ccc2c(c1)c(CC(=O)O)cc(=O)n2Cc1ccc(Cl)cc1`: 196 to 199 °C. `Nc1nc2ccccc2c2c1nc(-c1ccccc1)n2CCOc1ccccc1`: the melting point is 182 to 185 °C.

As for `Nc1cc(-c2ccccc2)cc2nc(-c3ccccc3)nn12`, the melting point lay within 214 to 216 °C.

Compound `CC(C)(C)OC(=O)[C@@H](Cc1ccccc1)NC(=O)C1CN(c2ccc(C#N)cc2)C(=O)O1` (stereo not given in full) gave a melting point of 72 °C. `CC(C)(C)OC(=O)NCC/C=C/c1cncnc1` yielded a melting point of 54 to 55.5 °C. The figure for `Cc1ccc(-c2cc(C(F)(F)F)n3ncc(-c4cccnc4)c3n2)cc1C(F)(F)F` is 182 °C. The same measure for `CCNC(=O)c1c(I)cccc1[Si](C)(C)C`: 135 to 137 °C; for `COCc1ccc(C2(O)CCN(CC(O)c3ccc(O)cc3)CC2)cc1` (stereo not given): 170 °C.

The compound `CCN(CC)CCNC(=O)c1cccc2c(=O)c3cc(I)ccc3[nH]c12` came in with a melting point of 140 to 142 °C. Regarding `CC(CO)n1nnc2cc3c(=O)n(C(C)Cn4ncnn4)nnc3cc2c1=O` (stereo not given), the melting point was in the range of 153 to 154 °C. Take `CCCCCOC(=O)NS(=O)(=O)CCc1cc(OCCCC)nn1Cc1ccc(Cl)cc1Cl`: the melting point lay within 91 to 93 °C.

Regarding `CCOC(=O)C(=CNc1ncnc2ccc(CC)cc12)C(=O)OCC`, the melting point fell in the range of 104 to 106 °C. In turn, `O=C(O)c1nn(-c2ccc(Cl)cc2Cl)c2c1CCc1cc(C(F)(F)F)ccc1-2` yielded a melting point of 245 °C.
